Data as given in US20190100534A1, “Cephem Compounds with Latent Reactive Groups” (Gladius Pharmaceuticals, Inc., priority 2017, published 2019).

Experiments:
Assay type in all cases: cell-based
[1] = tested on: Isogenic E. coli J58 strain carrying VIM-2; assay: MIC determination, isogenic E. coli strains; conditions: Escherichia coli, 18 h, read-out: Mimimum Inhibitory Concentrations, VIM-2
How it was run: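 E. coli J53 transformed with pBC-SK(+) plasmid carrying synthesized VIM-2 gene, grown in LB to OD600 >0.1, adjusted to 0.08–0.1 OD600 in CAMH broth.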

[2] = tested on: Isogenic E. coli J58 strain carrying SHV-1; assay: MIC determination, isogenic E. coli strains; conditions: Escherichia coli, 18 h, read-out: Mimimum Inhibitory Concentrations, SHV-1
How it was run: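 MIC is the lowest compound concentration leaving a transparent well after overnight (18 h) incubation at 37 °C. The test strain was E. coli J53 expressing plasmid-borne SHV-1 beta-lactamase from pBC-SK(+), adjusted to 0.5 McFarland. Compounds were twofold serially diluted, starting at 64 μg/mL, in CAMH broth supplemented with 20 μM apo-transferrin.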

[3] = tested on: Isogenic E. coli J58 strain carrying KPC-2; assay: MIC determination, isogenic E. coli strains; conditions: Escherichia coli, 18 h, read-out: Mimimum Inhibitory Concentrations, KPC-2
How it was run: (§1)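 Broth microdilution in cation-adjusted Mueller-Hinton broth with 20 μM apo-transferrin, compound at 64 down to […], inoculum set to 0.5 McFarland. E. coli J53 transformed with pBC-SK(+) carrying the synthetic beta-lactamase gene was used. Plates were incubated 18 h at 37 °C; MIC is the lowest concentration giving a clear well.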

[4] = tested on: Isogenic E. coli J58 strain carrying KPC-3; assay: MIC determination, isogenic E. coli strains; conditions: Escherichia coli, 18 h, read-out: Mimimum Inhibitory Concentrations, KPC-3
How it was run: as §1

[5] = tested on: Pseudomonas aeruginosa PA (RR-1); assay: MIC determination; conditions: Pseudomonas aeruginosa; PA (RR-1); CAMH broth, 20 μM Apo-Transferrin, 37° C., 18 hours; read-out: Minimum Inhibitory Concentrations, PA (RR-1)
How it was run: (§2)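 Values come from a visual broth microdilution read: the first transparent well at the lowest drug level defines MIC. Inocula were standardized to 0.5 McFarland units, and the medium was CAMH with 20 μM apo-transferrin. Plates incubated overnight, 18 h, at 37 °C.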

[6] = tested on: Pseudomonas aeruginosa (PA); assay: MIC determination; conditions: Pseudomonas aeruginosa; PA; CAMH broth, 20 μM Apo-Transferrin, 37° C., 18 hours; read-out: Minimum Inhibitory Concentrations, PA
How it was run: as §2

[7] = tested on: Pseudomonas aeruginosa PA-RR-(980151052); assay: MIC determination; conditions: Pseudomonas aeruginosa; PA-RR-(980151052); CAMH broth, 20 μM Apo-Transferrin, 37° C., 18 hours; read-out: Minimum Inhibitory Concentrations, PA-RR-(980151052)
How it was run: as §2

[8] = tested on: Pseudomonas aeruginosa PA-RR-(G7305586); assay: MIC determination; conditions: Pseudomonas aeruginosa; PA-RR-(G7305586); CAMH broth, 20 μM Apo-Transferrin, 37° C., 18 hours; read-out: Minimum Inhibitory Concentrations, PA-RR-(G7305586)
How it was run: as §2

[9] = tested on: Pseudomonas aeruginosa PA-RR-(G7304100); assay: MIC determination; conditions: Pseudomonas aeruginosa; PA-RR-(G7304100); CAMH broth, 20 μM Apo-Transferrin, 37° C., 18 hours; read-out: Minimum Inhibitory Concentrations, PA-RR-(G7304100)
How it was run: as §2

[10] = tested on: Pseudomonas aeruginosa PA (URMC-2); assay: MIC determination; conditions: Pseudomonas aeruginosa; PA (URMC-2); CAMH broth, 20 μM Apo-Transferrin, 37° C., 18 hours; read-out: Minimum Inhibitory Concentrations, PA (URMC-2)
How it was run: as §2

[11] = tested on: Pseudomonas aeruginosa PA-RR-(98023895); assay: MIC determination; conditions: Pseudomonas aeruginosa; PA-RR-(98023895); CAMH broth, 20 μM Apo-Transferrin, 37° C., 18 hours; read-out: Minimum Inhibitory Concentrations, PA-RR-(98023895)
How it was run: as §2

[12] = tested on: Pseudomonas aeruginosa PA-RR-(purple Fre D); assay: MIC determination; conditions: Pseudomonas aeruginosa, CAMH broth, 20 μM Apo-Transferrin, 37° C., 18 hours, read-out: Minimum Inhibitory Concentrations, PA-RR-(purple Fre D)
How it was run: as §2

[13] = tested on: Pseudomonas aeruginosa PA (RR-2); assay: MIC determination; conditions: Pseudomonas aeruginosa; PA (RR-2); CAMH broth, 20 μM Apo-Transferrin, 37° C., 18 hours; read-out: Minimum Inhibitory Concentrations, PA (RR-2)
How it was run: as §2

[14] = tested on: Pseudomonas aeruginosa PA-RR-(G7294437); assay: MIC determination; conditions: Pseudomonas aeruginosa; PA-RR-(G7294437); CAMH broth, 20 μM Apo-Transferrin, 37° C., 18 hours; read-out: Minimum Inhibitory Concentrations, PA-RR-(G7294437)
How it was run: as §2

[15] = tested on: Pseudomonas aeruginosa PA (URMC-3); assay: MIC determination; conditions: Pseudomonas aeruginosa; PA (URMC-3); CAMH broth, 20 μM Apo-Transferrin, 37° C., 18 hours; read-out: Minimum Inhibitory Concentrations, PA (URMC-3)
How it was run: as §2

[16] = tested on: Pseudomonas aeruginosa PA-RR-(G8062859); assay: MIC determination; conditions: Pseudomonas aeruginosa; PA-RR-(G8062859); CAMH broth, 20 μM Apo-Transferrin, 37° C., 18 hours; read-out: Minimum Inhibitory Concentrations, PA-RR-(G8062859)
How it was run: as §2

[17] = tested on: Isogenic E. coli J58 strain carrying NDM-1; assay: MIC determination, isogenic E. coli strains; conditions: Escherichia coli, 18 h, read-out: Mimimum Inhibitory Concentrations, NDM-1
How it was run: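 E. coli J53 transformed with a pBC-SK(+) plasmid encoding NDM-1 was adjusted to 0.08-0.1 OD600. It was grown 18 h at 37° C in CAMH broth containing 20 μM apo-transferrin with twofold compound dilutions from 64 μg/mL. MIC was taken as the lowest concentration giving a transparent well.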

Row | Compound | MIC [1] | MIC [2] | MIC [3] | MIC [4] | MIC [5] | MIC [6] | MIC [7] | MIC [8] | MIC [9] | MIC [10] | MIC [11] | MIC [12] | MIC [13] | MIC [14] | MIC [15] | MIC [16] | MIC [17]
1 | CC(C)(O/N=C(\C(=O)N[C@@H]1C(=O)N2C(C(=O)O)=C(C=Cc3ccc(C[N+](C)(C)Cc4ccc(O)c(O)c4)cc3)CS[C@H]12)c1csc(N)n1)C(=O)O (mixture of isomers) [Compound 426, N-(4-((E/Z)-2-((6R,7R)-7-((Z)-2-(2-aminothiazol-4-yl)-2-(((2-carboxypropan-2-yl)oxy)imino)acetamido)-2-carboxy-8-oxo-5-thia-1-azabicyclo[4.2.0]oct-2-en-3-yl)vinyl)benzyl)-1-(3,4-dihydroxyphenyl)-N,N-dimethylmethanaminium] | 8 µg/mL | 0.5 µg/mL | 64 µg/mL | 8 µg/mL | 4 µg/mL | 4 µg/mL | 4 µg/mL | 4 µg/mL | 0.25 µg/mL | 4 µg/mL | 8 µg/mL | 1 µg/mL | 2 µg/mL | 0.5 µg/mL | 64 µg/mL | 2 µg/mL | > 64 µg/mL
2 | CC(C)(O/N=C(\C(=O)N[C@@H]1C(=O)N2C(C(=O)O)=C(C=Cc3ccc(C[N+]4(C)CCc5cc(O)c(O)cc5C4)cc3)CS[C@H]12)c1csc(N)n1)C(=O)O (mixture of isomers) [Compound 407, 2-(4-((E/Z)-2-((6R,7R)-7-((Z)-2-(2-aminothiazol-4-yl)-2-(((2-carboxypropan-2-yl)oxy)imino)acetamido)-2-carboxy-8-oxo-5-thia-1-azabicyclo[4.2.0]oct-2-en-3 yl)vinyl)benzyl)-6,7-dihydroxy-2-methyl-1,2,3,4-tetrahydroisoquinolin-2-ium] | 0.5 µg/mL | 0.5 µg/mL | 8 µg/mL | 4 µg/mL | 4 µg/mL | 2 µg/mL | 0.06 µg/mL | 0.03 µg/mL | 0.03 µg/mL | 4 µg/mL | 0.13 µg/mL | 0.06 µg/mL | 2 µg/mL | 0.03 µg/mL | 0.25 µg/mL | 0.06 µg/mL | > 64 µg/mL
3 | CC(C)(O/N=C(\C(=O)N[C@@H]1C(=O)N2C(C(=O)O)=C(C=Cc3ccc(C[N+]4(C)Cc5cc(O)c(O)cc5C4)cc3)CS[C@H]12)c1csc(N)n1)C(=O)O (mixture of isomers) [Compound 424, 2-(4-((E/Z)-2-((6R,7R)-7-((Z)-2-(2-aminothiazol-4-yl)-2-(((2-carboxypropan-2-yl)oxy)imino)acetamido)-2-carboxy-8-oxo-5-thia-1-azabicyclo[4.2.0]oct-2-en-3-yl)vinyl)benzyl)-5,6-dihydroxy-2-methylisoindolin-2-ium] | 2 µg/mL | 2 µg/mL | 32 µg/mL | 8 µg/mL | 4 µg/mL | 2 µg/mL | 4 µg/mL | 8 µg/mL | ≤ 0.06 µg/mL | 4 µg/mL | 8 µg/mL | 2 µg/mL | 4 µg/mL | 0.25 µg/mL | 0.13 µg/mL | 2 µg/mL | > 64 µg/mL
4 | CC(C)(O/N=C(\C(=O)N[C@@H]1C(=O)N2C(C(=O)O)=C(C=Cc3ccc(C[N+](C)(C)Cc4cc(O)c(O)c(Cl)c4)cc3)CS[C@H]12)c1csc(N)n1)C(=O)O (mixture of isomers) [Compound 436, N-(4-((E/Z)-2-((6R,7R)-7-((Z)-2-(2-aminothiazol-4-yl)-2-(((2-carboxypropan-2-yl)oxy)imino)acetamido)-2-carboxy-8-oxo-5-thia-1-azabicyclo[4.2.0]oct-2-en-3-yl)vinyl)benzyl)-1-(3-chloro-4,5-dihydroxyphenyl)-N,N-dimethylmethanaminium] | 1 µg/mL | 1 µg/mL | 64 µg/mL | 8 µg/mL | 2 µg/mL | 8 µg/mL | 4 µg/mL | 8 µg/mL | 4 µg/mL | 8 µg/mL | 4 µg/mL | 2 µg/mL | 4 µg/mL | 0.5 µg/mL | 64 µg/mL | 5 µg/mL | > 64 µg/mL
